Measurements: US20260008862A1, “Bispecific Anti-BCMA x Anti-CD3 Antibodies and Uses Thereof” (Regeneron Pharmaceuticals, Inc., priority 2018, published 2026)

Legend:
[1] = molecular target: T1, surface BCMA on MM cell lines (Homo sapiens, UniProt Q02223); test: FACS surface BCMA after overnight incubation, MM cell lines overall; type: cell-based; conditions: 66.7 or 667 nM
T1 construct: human cell lines which express endogenous BCMA (e.g., NCI-H929, MOLP-8 or OMP-2); endogenous in cells; host or cells: multiple myeloma cell lines H929, Molp8, U266, MM1.S
T1 sequence (Q02223 1-184): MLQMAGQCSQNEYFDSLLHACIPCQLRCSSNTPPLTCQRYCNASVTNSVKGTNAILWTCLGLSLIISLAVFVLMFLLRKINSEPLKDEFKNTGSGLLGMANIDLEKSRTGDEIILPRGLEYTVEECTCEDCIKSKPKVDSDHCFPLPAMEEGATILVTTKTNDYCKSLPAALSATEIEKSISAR
Procedure: Flow cytometric analysis was utilized to determine the impact of overnight incubation of multiple myeloma cell lines with anti-BCMA antibodies on the level of surface BCMA. […] After 18 hours, wells were washed with cold FACS wash (PBS+1% filtered FBS) and resuspended in 667 nM of the same anti-BCMA antibody in cold stain buffer (Miltenyi 130-091-221) for 30 minutes on ice. After incubation, the cells were washed twice with cold FACS wash (PBS+1% filtered FBS) and bound antibody was detected by incubating with the appropriate anti-human secondary antibody (anti-hIgG or anti-HIS) on ice for an additional 30-45 minutes. After incubation, cells were washed, re-suspended in 200 μL cold PBS containing 1% filtered FBS and analyzed by flow cytometry on a BD FACS Canto II. Fold increase in staining was calculated by dividing the MFI of stained cells previously incubated overnight in BCMA abs or DAPT by the MFI of stained cells that were incubated overnight in media only.

[2] = tested on: BCMA+ MOLP-8-luciferase tumors; test: MOLP-8-luciferase intravenous xenogenic tumor model, BLI (Example 14); type: in vivo, mouse; conditions: 4 mg/kg on days 0, 3 and 7
Procedure: To determine the in vivo efficacy of anti-BCMA×anti-CD3 bispecific antibodies (Abs), a xenogenic tumor study was performed. On day −11, immunodeficient NOD.Cg-Prkdc^scidIl2rg^tm1Wji/SzJ (NSG) mice were intraperitoneally injected with 4×10^6 human peripheral blood mononuclear cells (PBMC) from a normal, healthy donor. On day 0, the mice were intravenously administered 2×10^6 BCMA^+ MOLP-8 human multiple myeloma tumor cells that were engineered to also express firefly luciferase (MOLP-8-luciferase cells). […] The mice were administered these Abs twice more on days 3 and 7, for a total of three doses. Tumor growth was assessed over 48 days by measuring tumor bioluminescence (BLI) in anesthetized animals. As a positive control, a group of mice (n=5) was given only MOLP-8-luciferase cells, but not PBMC or antibody.
Implantation and measurement of xenogenic tumors: On day −11, immunodeficient NOD.Cg-Prkdc^scidIl2rg^tm1Wji/SzJ (NSG) mice were intraperitoneally injected with 5×10^6 human PBMC from a normal, healthy donor. […] Tumor growth was assessed over 48 days by measuring tumor BLI in anesthetized animals. […]
Measurement of xenogenic tumor growth: BLI imaging was used to measure tumor burden. […] Image acquisition was carried out with the field of view at D, subject height of 1.5 cm, and medium binning level with automatic exposure time determined by the Living Image Software. […]

[3] = tested on: monkey BCMA-MMH; test: SPR (Biacore 4000) binding kinetics to monkey BCMA-MMH; conditions: 25° C.
Procedure: (§1) The CM5 Biacore sensor surface was derivatized by amine coupling with a monoclonal mouse anti-human Fc antibody (GE, #BR-11008-39) to capture purified anti-BCMA mAbs and anti-BCMA×anti-CD3 bispecific mAbs. All Biacore binding studies were performed in a buffer composed of 0.01 M HEPES pH 7.4, 0.15M NaCl, 3 mM EDTA, 0.05% v/v Surfactant P20 (HBS-ET running buffer). […] Antigen samples were then injected over the anti-BCMA and anti-BCMA×anti-CD3 bispecific mAbs captured surfaces at a flow rate of 30 μL/minute. Antibody-reagent association was monitored for 5 minutes while dissociation in HBS-ET running buffer was monitored for 10 minutes. All of the binding kinetics experiments were performed at 25° C. Kinetic association (ka) and dissociation (kd) rate constants were determined by fitting the real-time sensorgrams to a 1:1 binding model using Scrubber 2.0c curve fitting software. Binding dissociation equilibrium constants (KD) and dissociative half-lives (t½) were calculated from the kinetic rate constants as: […]

[4] = tested on: Jurkat/NFATLuc.3C7 cells + MOLP-8 cells; test: Jurkat/NFATLuc reporter bioassay with MOLP-8 cells; type: cell-based; conditions: highest RLU / lowest RLU
Procedure: Activity of the anti-BCMA×anti-CD3 bispecific antibodies were assessed in a Jurkat/NFATLuc reporter bioassay utilizing several cell lines with varying levels of BCMA surface expression. The Jurkat cells were engineered to express an NFAT-luciferase reporter (Jurkat/NFATLuc.3C7), and 50,000 Jurkat reporter cells were combined with 50,000 BCMA positive (Daudi, MM1-S, NCI-H929, OPM-2, RPMI-8226, MOLP-8, or Raji) or BCMA negative (HEK293) cells in Thermo Nunclon delta 96 well white microwell plates (Thermo Scientific, Cat #136102) in 50 ul of assay media (RPMI media with 10% FBS and 1% P/S/G). Three-fold serial dilutions of the BCMA×CD3 bispecific antibodies (mAb25441 D or mAb25442D), or a bivalent anti-BCMA antibody (mAb21581) were immediately added in 50 μL of assay buffer. The plates were gently agitated and incubated in a 37° C., 5% CO2 incubator for 4-6 hours. NFAT-Luciferase activity was determined using Promega One-Glo (Cat #E6130) and a Perkin Elmer Envision plate reader. RLU were plotted in GraphPad Prism using a four-parameter logistic equation over a 12-point response curve to calculate EC50 values. […] The signal to noise (S:N) is determined by taking the ratio of the highest RLU on the curve to the lowest.

[5] = molecular target: T2, human BCMA-MFC (Homo sapiens, UniProt Q02223); test: SPR (Biacore 4000) binding kinetics to human BCMA-MFC; conditions: 25° C.
T2 construct: (human BCMA-MFC); made in house
Procedure: as §1

[6] = tested on: monkey BCMA-MFC; test: SPR (Biacore 4000) binding kinetics to monkey BCMA-MFC; conditions: 25° C.
Procedure: as §1

Sequence of monkey BCMA-MMH (as listed by the source): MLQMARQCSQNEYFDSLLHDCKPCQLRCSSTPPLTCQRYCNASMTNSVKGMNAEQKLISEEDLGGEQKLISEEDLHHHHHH
T2 sequence (Q02223 with tags, fused parts or gaps): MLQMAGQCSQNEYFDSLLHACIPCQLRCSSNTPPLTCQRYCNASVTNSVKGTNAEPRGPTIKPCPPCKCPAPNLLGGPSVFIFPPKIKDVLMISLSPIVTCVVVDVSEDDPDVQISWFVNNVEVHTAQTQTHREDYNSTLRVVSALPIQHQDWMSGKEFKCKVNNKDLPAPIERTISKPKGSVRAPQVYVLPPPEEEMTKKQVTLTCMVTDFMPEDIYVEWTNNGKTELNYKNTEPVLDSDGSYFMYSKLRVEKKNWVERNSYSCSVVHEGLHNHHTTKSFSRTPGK
Sequence of monkey BCMA-MFC (as listed by the source): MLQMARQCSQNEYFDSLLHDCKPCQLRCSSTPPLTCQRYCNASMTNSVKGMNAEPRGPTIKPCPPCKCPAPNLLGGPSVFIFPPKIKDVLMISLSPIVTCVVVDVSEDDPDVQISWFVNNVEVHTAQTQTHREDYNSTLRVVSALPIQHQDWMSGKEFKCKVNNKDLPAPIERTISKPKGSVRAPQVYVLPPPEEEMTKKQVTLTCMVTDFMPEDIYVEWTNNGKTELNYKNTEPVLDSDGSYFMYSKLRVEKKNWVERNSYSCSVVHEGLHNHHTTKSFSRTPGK

Row | Substance | surface BCMA after overnight incubation (in words) [1] | tumor growth (in words) [2] | ka [3] | kd [3] | S:N [4] | ka [5] | kd [5] | ka [6] | kd [6]
1 | REGN5458: anti-BCMA×anti-CD3 bispecific antibody: BCMA HCVR of mAb21581 (SEQ 66), CD3 HCVR of mAb7221G (SEQ 90), common LCVR SEQ 82 | increased levels of surface BCMA | delayed the growth |  |  |  |  |  |  | 
2 | REGN5459: anti-BCMA×anti-CD3 bispecific antibody: BCMA HCVR of mAb21581 (SEQ 66), CD3 HCVR of mAb7221G20 (SEQ 98), common LCVR SEQ 82 |  |  | 223000 M⁻¹ s⁻¹ | 0.00864 s⁻¹ | 31 | 449000 M⁻¹ s⁻¹ | ≤1e-05 s⁻¹ | 482000 M⁻¹ s⁻¹ | 7.15e-05 s⁻¹
